Laboratory results as given in PubChem BioAssay (NCI).
Several values for one entry are separate records, joined by “and”; a condition that tells them apart may be missing. Equal entries are not always repeated.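 In this assay, cells in 96-well plates receive the compound at five concentrations for 48 hours. Endpoints are linearly interpolated between the surrounding concentrations. At the GI50, growth is halved. Definition used: TGI = concentration required for complete inhibition of growth.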

Assays:
Experiment in all cases: DTP human tumour cell line panel, 48 h
SF-268 CNS = tested on: SF-268 CNS
SNB-19 CNS = tested on: SNB-19 CNS
NCI-H522 lung = tested on: NCI-H522 lung
HCC-2998 colon = tested on: HCC-2998 colon
SNB-75 CNS = tested on: SNB-75 CNS
HS 578T breast = tested on: HS 578T breast
HT29 colon = tested on: HT29 colon
IGROV1 ovarian = tested on: IGROV1 ovarian
PC-3 prostate = tested on: PC-3 prostate
TK-10 renal = tested on: TK-10 renal

SMILES | TGI (SF-268 CNS) [µM] | TGI (SNB-19 CNS) [µM] | TGI (NCI-H522 lung) [µM] | TGI (HCC-2998 colon) [µM] | TGI (SNB-75 CNS) [µM] | TGI (HS 578T breast) [µM] | TGI (HT29 colon) [µM] | TGI (IGROV1 ovarian) [µM] | TGI (PC-3 prostate) [µM] | TGI (TK-10 renal) [µM] | GI50 (NCI-H522 lung) | GI50 (SNB-75 CNS)
O=C(Oc1cc(=O)c(OC(=O)c2ccccc2)co1)c1ccccc1 | > 100 | > 100 | > 100 | > 100 | > 100 | > 100 | > 100 | > 100 | > 100 | > 100 |  | 
CC1CN=C(N(C(=O)Nc2ccc(F)c(Cl)c2)c2ccccc2)S1 (configuration not stated) | > 100 | > 100 |  |  | 63.7 | > 100 | 58 | > 100 | 95.5 | 68.4 |  | 
Cc1ccc(CC[P+](=O)CCc2ccc(C)nc2)cn1 | > 100 | > 100 | > 100 | > 100 |  | > 100 | > 100 | > 100 | > 100 | > 100 |  | 
COc1ccc(-c2c3c([nH]c(=S)c2C#N)CC(C)(C)CC3=O)cc1 | > 100 | > 100 | > 100 | > 100 |  | > 100 | > 100 | > 100 | > 100 | > 100 |  | 
C=C1c2cc3c(cc2CC12Cc1cc4c(cc1C2=O)CCC4)CCC3 (configuration not stated) | > 100 | > 100 | > 100 | > 100 | > 100 | > 100 | > 100 | > 100 | > 100 | > 100 |  | 
COc1ccc(-c2oc(/C=N/NC(N)=S)c([N+](=O)[O-])c2-c2ccc(OC)c(OC)c2)cc1OC | 58 | 97 | 65.3 |  | 72.3 |  | 51.7 | > 100 |  | > 100 |  | 
CNc1ncnc2c1cnn2COCC(O)CO (configuration not stated) | > 100 | > 100 | > 100 | > 100 | > 100 | > 100 | > 100 | > 100 | > 100 | > 100 |  | 
C[C@@H](Cl)[C@H]1CCCN(Cc2ccc(Br)cc2)C1 | > 12.5 | > 12.5 | > 12.5 | > 12.5 | > 12.5 | > 12.5 | > 12.5 | > 12.5 | > 12.5 | > 12.5 |  | 
CC(O)CCCOC(c1ccccc1)(c1ccccc1)c1ccccc1 (configuration not stated) | 29.8 | 29.6 | 26.8 | 29.1 | 25.8 | 39.6 | 26.2 | 29.9 | 23.7 | 30.6 |  | 
CCOC(=O)c1nc2ccc(C(F)(F)F)cc2nc1Oc1ccc(C#N)cc1 | 33.6 | 35.3 |  | > 100 | 28 | 36.5 | 77.9 | 28.5 | 36 | 84.3 |  | 
C[C@@H]1S[C@H](c2ccccc2F)N2Cc3ccccc3N=C12 | > 100 | > 100 | 51.6 | 40.9 | 97.4 | > 100 | 86.6 | > 100 | 97.1 | 94.2 |  | 
CCC1=CC2CN3Cn4c(c(COCc5c6n(c7ccccc57)CN5CC7C=C(CC)C5C6(C(=O)OC)C7)c5ccccc54)C(C(=O)OC)(C2)C13 | > 100 | > 100 | > 100 |  |  |  | > 100 | > 100 |  | > 100 |  | 
O=C(Nc1ccccc1F)c1cc2ccc(O)cc2oc1=Nc1ccccc1F | 5.26 | 18.6 | 3.09 | 8.04 |  | 5.03 | 32.9 | 4.13 | 7.61 |  |  | 
O=C(NCCCN(CCCCN(CCCNC(=O)C(F)(F)F)Cc1ccc2ccccc2c1)Cc1ccc2ccccc2c1)C(F)(F)F | > 100 |  | > 100 | 2.93 | > 100 |  | 2.57 | > 100 | > 100 | > 100 |  | 
COc1ccc(S(=O)(=O)N2C(=O)CCC2C(=O)NN)cc1 (configuration not stated) |  | > 100 | > 100 | > 100 | > 100 | > 100 | > 100 | > 100 | > 100 | > 100 |  | 
Cc1cn([C@@H]2C[C@H](CO)[C@@H](O)C2)c(=O)[nH]c1=O | > 100 | > 100 | > 100 | > 100 | > 100 |  | > 100 | > 100 |  |  |  | 
CC(C)(C)OC(=O)NCCC(N)=S | > 100 | > 100 |  |  | > 100 | > 100 | > 100 | > 100 | > 100 | > 100 |  | 
COc1c(O)c2c3c(c(C)cc(O)c3c1O)C(=O)C(O)(C(C)(C)C(C)=O)C2=O (configuration not stated) | > 100 | > 100 | > 100 |  | > 100 |  | > 100 | > 100 |  | > 100 | 49.7 µM and > 100 µM | 
CC1(C)C2CC(=O)C1(C)C(O)C2Br (configuration not stated) | > 100 | > 100 |  | > 100 |  | > 100 | > 100 | > 100 | > 100 | > 100 |  | 
COc1nc2ncc([C@@H](OC(C)=O)[C@@H](COC(C)=O)OC(C)=O)nc2c(=O)[nH]1 | > 100 | > 100 | > 100 |  | > 100 | > 100 | > 100 | > 100 | > 100 | > 100 | > 100 µM and 41.7 µM | > 100 µM and 11.3 µM
CC(=O)c1cccn1/C=C(\OC(=O)OC(C)(C)C)c1ccc[nH]1 | > 100 | > 100 | > 100 | > 100 | 67.2 | > 100 |  | > 100 | > 100 | > 100 |  | 
O=C1Sc2ccccc2C(=O)N2CSCC12 (configuration not stated) | > 100 | > 100 | > 100 | > 100 | > 100 |  | > 100 | > 100 |  | > 100 |  | 
